What was measured:
M. javanica = assay: Nematicidal activity of fatty acid methyl ester emulsions against root knot nematode J2 larvae (Example 6); type: cell-based, Meloidogyne javanica; settings: 0.1% emulsion; 48 hours incubation, counted about 24 hours after transfer to plates
Description: (§1) Fatty acid methyl ester emulsions were prepared following the teachings of Kim et al (U.S. Pat. No. 5,698,592). Briefly, 1 ml 1% stock solution emulsions were prepared by mixing 10 μl of fatty acid methyl ester with 20 μl of the surfactant Igepal CO 630 in a 1.5 ml eppendorf tube. After careful mixing of fatty acid and Igepal CO 630, 850 μl of ddH20 was added and mixed by gentle pipetting until a homogeneous solution was obtained. Finally, 120 μl of pure isopropanol was added and mixed by gentle pipetting. This stock solution was then used to produce various fatty acid methyl ester dilution emulsions in 24-well plate assays.
Meloidogyne incognita and javanica were prepared from tomato roots. The roots were bleached and the debris was separated from the J2 larvae and eggs by filtration followed by sucrose density gradient centrifugation. Eggs were hatched over 4 days at 15° C. and the J2 larvae were collected by passage though a filter, followed by centrifugation.
Nematodes and emulsions were incubated with shaking at room temperature for 48 hours. The contents of each well were transferred to a small spot on individual NGM plates lacking bacteria. About 24 hours after the transfer to plates, worms on and off the inoculation spot were counted as not viable or viable, respectively. Worms were considered viable if they had crawled away from the inoculation spot, or if they were moving. Worms were considered non-viable if they remained at the inoculation spot.

C. elegans = assay: Nematicidal activity of single fatty acid methyl ester emulsions against Caenorhabditis elegans (Example 4); type: cell-based
Description: Mixed stage Caenorhabditis elegans were washed off plates seeded with OP50 bacteria using M9 solution. 250 μl of the M9 solution, which contained about 50 worms, was pipetted into each well of a 24-well plate.
as §1
To each well, fatty acid emulsions or control emulsions were added and rapidly mixed by swirling. Nematode viability was scored by visual observation and motility assays at various time points 24 hours following addition of emulsions or controls. The fatty acid emulsions tested were methyl esters of nonanoic (pelargonic) acid, ricinoleic acid, vernolic acid, linoleic acid, oleic acid, and control emulsions lacking fatty acids.

For `CCCCCCC(O)C/C=C\CCCCCCCC(=O)OC` (stereo not drawn) [Ricinoleic Acid (C18-methyl ester), 12-hydroxy-cis-9-octadecenoic acid methyl ester], the “M. javanica (% not viable)” value (M. javanica) was 60%, the “Percentage of Worm Death” value (C. elegans; 0.003% emulsion, 1 hr) was 60% and the “Percentage of Worm Death” value (C. elegans; 0.003% emulsion, 6 hr) was 60%. The “Percentage of Worm Death” value (C. elegans; 0.003% emulsion, 24 hr) was 60%, the “Percentage of Worm Death” value (C. elegans; 0.1% emulsion, 1 hr) was 90% and the “Percentage of Worm Death” value (C. elegans; 0.1% emulsion, 6 hr) was 90%. The “Percentage of Worm Death” value (C. elegans; 0.1% emulsion, 24 hr) was 90%, the “Nematicidal activity (in words)” value (C. elegans; concentration of 0.1%) was “strongly nematicidal” and the “Time before strong killing effects are apparent” value (C. elegans; emulsion, C. elegans) was “up to 30 minutes”.

From patent publication US6903052B2, “Nematicidal compositions and methods” (Divergence, Inc., priority 2002, dated 2005)
